These results are taken from ChEMBL document CHEMBL5257131, “Quantum Annealing Designs Nonhemolytic Antimicrobial Peptides in a Discrete Latent Space” (ACS Med Chem Lett, 2023).

Peptide text beside a SMILES is read from it.

One data set deals with Escherichia coli. The data set is described as follows: Antimicrobial activity against Escherichia coli assessed as inhibition of microbial growth incubated for 26 hrs by micro-dilution test. In kind it is functional. Background: Broth dilution looks for growth in wells or tubes with falling amounts of substance.
Data set [1] is described as follows: Hemolytic activity in rabbit RBC assessed as hemolysis at 100 uM incubated for 6 hrs by Uv-vis spectrophotometric analysis. In kind it is toxicity, cell-based, Oryctolagus cuniculus. Particulars: erythrocyte.
A short description of data set [2]: Hemolytic activity in human erythrocytes assessed as hemolysis at 1 uM incubated for 1 hrs by spectrophotometric analysis relative to control. Particulars: read-out: Activity. In kind it is toxicity, cell-based, Erythrocyte.

The term MIC denotes the lowest concentration found to suppress growth. Regarding `CC(C)C[C@H](NC(=O)[C@H](CC(N)=O)NC(=O)[C@H](CCCCN)NC(=O)[C@H](CC(C)C)NC(=O)[C@@H](NC(=O)[C@H](CCCCN)NC(=O)[C@H](Cc1ccccc1)NC(=O)CN)[C@@H](C)O)C(=O)N[C@@H](C)C(=O)N[C@@H](CCCCN)C(=O)N[C@@H](CCCCN)C(=O)N[C@H](C(=O)N[C@@H](C)C(=O)N[C@@H](CCCCN)C(=O)N[C@@H](CCCCN)C(=O)N[C@H](C(=O)N[C@@H](CC(C)C)C(=O)N[C@@H](CCCCN)C(=O)N[C@@H](C)C(=O)N[C@H](C(=O)N[C@@H](CCCNC(=N)N)C(=O)O)C(C)C)C(C)C)C(C)C` (H-GFKTLKNLAKKVAKKVLKAVR-OH), the MIC in the data set with Escherichia coli was found to be 6.25 mg/L. Moreover, in data set [1], the Activity result was “Non-Toxic”.

Take `CC[C@H](C)[C@H](NC(=O)CN)C(=O)NCC(=O)N[C@@H](C)C(=O)N[C@H](C(=O)N[C@@H](CC(C)C)C(=O)N[C@@H](CCCCN)C(=O)N[C@H](C(=O)N[C@@H](CC(C)C)C(=O)N[C@H](C(=O)N[C@H](C(=O)NCC(=O)N[C@@H](CC(C)C)C(=O)N1CCC[C@H]1C(=O)N[C@@H](C)C(=O)N[C@@H](CC(C)C)C(=O)N[C@H](C(=O)N[C@@H](CO)C(=O)N[C@@H](Cc1c[nH]c2ccccc12)C(=O)N[C@H](C(=O)N[C@@H](CCCCN)C(=O)N[C@@H](CCCNC(=N)N)C(=O)N[C@@H](CCCCN)C(=O)N[C@@H](CCCNC(=N)N)C(=O)N[C@@H](CCC(N)=O)C(=O)N[C@@H](CCC(N)=O)C(N)=O)[C@@H](C)CC)[C@@H](C)CC)[C@@H](C)O)[C@@H](C)O)C(C)C)C(C)C` [MELITTIN]: in data set [2], the hemolysis at 1 h, 1 µM turned out to be 90%.

In the case of `CC[C@H](C)[C@H](NC(=O)CNC(=O)[C@H](CCCCN)NC(=O)[C@H](C)NC(=O)[C@@H](NC(=O)[C@H](CCCCN)NC(=O)[C@H](CCCCN)NC(=O)[C@H](CC(C)C)NC(=O)[C@@H](NC(=O)[C@@H](NC(=O)[C@@H](NC(=O)[C@H](CC(C)C)NC(=O)CN)C(C)C)[C@@H](C)O)C(C)C)C(C)C)C(=O)N[C@H](C(=O)N[C@@H](CCCCN)C(=O)N[C@H](C(=O)N[C@@H](C)C(=O)N[C@@H](CO)C(=O)N[C@@H](CCCCN)C(=O)N[C@H](C(=O)NCC(=O)N[C@@H](CO)C(=O)N[C@@H](CCCCN)C(=O)N[C@@H](CCC(=O)O)C(=O)N[C@@H](CC(C)C)C(=O)O)C(C)C)[C@@H](C)O)C(C)C` (H-GLVTVLKKVAKGIVKTASKVGSKEL-OH), the MIC with Escherichia coli is greater than 100 mg/L.

Take `CC1(C)S[C@@H]2[C@H](NC(=O)[C@H](N)c3ccccc3)C(=O)N2[C@H]1C(=O)O` [AMPICILLIN]: the minimum inhibitory concentration (MIC) in the data set with Escherichia coli stood at 6.25 mg/L.
